Measured values as given in paper PMC11756168, “Drug-drug interaction between ensitrelvir and tacrolimus in a patient undergoing treatment for COVID-19: a case report” (Journal of Pharmaceutical Health Care and Sciences, 2025).
“Also recorded” adds a separate entry of the source.

Columns and labels:
[1] = Laboratory parameters (Scr, ALT) in the patient; format: in vivo, human
[2] = cited from earlier work
[3] = One-compartment simulation of TAC levels with various F values; parameters: species or system human; settings: for half-life: human, blood, oral, read-out: Estimated TAC half-life (converted)
Source text: (§1) t1/2=0.693/ke Cmax=Ctrough+F*Dose/Vd
(§2) where C1 and C2 represent the TAC blood levels at times T1 and T2 in the same dosing interval (T2 > T1), respectively. Ctrough represents TAC blood levels immediately before administration and dose represents the TAC dose. The volume of distribution (Vd) was assumed to be 42 L (1 L/kg based on a body weight of 42 kg). If the Ctrough was unavailable, Ctrough was estimated using ke.
Next, we evaluated the duration of DDI using ensitrelvir. […] Consequently, when F was set to 0.125, the simulated TAC levels matched the measured levels at 7:00 on day 8 (Supplemental Table S1). The estimated F value of TAC (0.125) was similar to that reported in a previous report (0.25 ± 0.20), which indicates the limited effect of ensitrelvir on the intestinal absorption of TAC. […] These pharmacokinetic analyses indicate that the DDI effect of ensitrelvir gradually diminishes over 7–10 days after its discontinuation. […] Therefore, caution regarding DDI with ensitrelvir should be exercised for 7–10 days after discontinuation of ensitrelvir. Furthermore, in the case of irreversible CYP3A inhibition, the timing of CYP3A expression recovery varies among individuals. Therefore, TAC after ensitrelvir treatment should be restarted at a reduced dosage and its blood levels should be closely monitored.
^a The tacrolimus level was estimated using a one-compartment pharmacokinetics model for oral administration, without considering the absorption rate constant. For tacrolimus levels after day 8, only values predicted with F = 0.125 are shown.

[4] = Pharmacokinetics of TAC (literature); format: in vivo; settings: human, blood; assumed, 1 L/kg at body weight 42 kg; read-out: volume of distribution (Vd) of TAC
[5] = TAC blood level monitoring (Siemens Dimension EXL200, ACMIA method) in the patient; settings: human
[6] = One-compartment calculation of TAC elimination half-life from consecutive blood levels; format: in vivo; settings: human, po, 1.5 mg, read-out: calculated t1/2 of TAC (converted)
Protocol: Assuming a one-compartment model, the elimination rate constant (ke), elimination half-life (t1/2), and maximum plasma concentration (Cmax) of TAC were calculated as follows: ke=lnC1/C2/T2-T1
as §1, §2

SARS-CoV-2 = assay: SARS-CoV2 PCR cycle threshold (Ct) in the patient; format: in vivo
Protocol: On the day of admission, the patient was started on a five-day course of remdesivir (200 mg IV once, followed by 100 mg IV every 24 h for 4 days). The patient was also administered corticosteroid (day -30 to -21, dexamethasone 6 mg PO, once daily after breakfast; day -20 to -17, prednisolone 30 mg PO, once daily after breakfast). On day -23, baricitinib (2 mg PO, once daily after breakfast for 6 days) was administered. On day -17, methylprednisolone (1,000 mg IV, once daily for 5 days) was administered, followed by dexamethasone (6 mg IV, once daily after breakfast). The cycle threshold (Ct) value from the SARS-CoV2 PCR after treatment ([…]) was 25.73, indicating persistent viral presence; therefore, a second five-day course of remdesivir was administered. On day -13, tocilizumab (360 mg IV, once daily) was administered. […] Consequently, a third course of remdesivir was initiated on day -2 (200 mg IV once, followed by 100 mg IV daily for 9 days). On day 0, the patient was started on ensitrelvir treatment (375 mg PO once, followed by 125 mg PO for 4 days) in combination with remdesivir. At the time of the start of ensitrelvir therapy (day 0), the patient was taking the following medications: TAC (1.5 mg PO, once daily after dinner), dexamethasone (6 mg IV, once daily), sulfamethoxazole/trimethoprim (400 mg/80 mg PO, once daily after breakfast), rosuvastatin (5 mg PO, once daily after breakfast), nicorandil (5 mg PO, 3 times daily after meals), aspirin (100 mg PO, once daily after breakfast), esomeprazole (20 mg PO, once daily after breakfast), rivastigmine patch (18 mg, once daily), and subcutaneous denosumab (60 mg, every six months). The patient had received a COVID-19 vaccine approximately one year ago. The patient had no supplements or over-the-counter drugs. Grapefruit was not offered during the hospital stay. Before the start of ensitrelvir therapy, a clinical pharmacist informed the attending physician regarding the potential DDI between ensitrelvir and TAC or rosuvastatin (BCRP substrate) and recommended avoiding the concomitant use. Consequently, TAC was discontinued from the day before the start of ensitrelvir (day -1), and TAC blood levels were frequently monitored using a Siemens Dimension EXL200 with Flex Cartridge Tacrolimus (ACMIA method, Siemens). Rosuvastatin treatment was discontinued on day 0. Given that ensitrelvir is metabolized by CYP3A [17], dexamethasone, which reportedly induces CYP3A [18], was replaced with methylprednisolone on day 1.

[7] = Pharmacokinetics of ensitrelvir (literature); format: in vivo, human; settings: suggested from t1/2 51.4 h
[8] = CT imaging of the lungs in the patient; format: in vivo, human; settings: day 18, after ensitrelvir in combination with remdesivir
CYP3A and P-gp = settings: cited from earlier work
[9] = cited from earlier work; remark: listed apart in the source
CYP3A [10] = settings: ensitrelvir co-administration; cited from earlier work
CYP3A [11] = tested on: CYP3A
P-glycoprotein (P-gp) = tested on: P-glycoprotein (P-gp); parameters: method as in PMID 37043676, PMID 37171749; settings: cited from earlier work
[12] = tested on: Cytochrome P450 3A (CYP3A); settings: cited from earlier work
P-gp = tested on: P-gp; parameters: method as in PMID 37043676; settings: cited from earlier work
[13] = tested on: breast cancer resistance protein (BCRP); parameters: method as in PMID 37043676, PMID 37171749; settings: cited from earlier work

For `C=CC[C@@H]1/C=C(\C)C[C@H](C)C[C@H](OC)[C@H]2O[C@@](O)(C(=O)C(=O)N3CCCC[C@H]3C(=O)O[C@H](/C(C)=C/[C@@H]3CC[C@@H](O)[C@H](OC)C3)[C@H](C)[C@@H](O)CC1=O)[C@H](C)C[C@@H]2OC` [TAC, Tacrolimus], the Scr levels ([1]; TAC maintained at 1.5 mg daily, normal range 0.75—1.0 mg/dL) is given as “within normal range”, the “volume of distribution (Vd) of TAC” value ([2]; assumed) is given as 1 L/kg and the “F value of TAC in a previous report” value [2] is given as 0.25 ± 0.20. For the same compound, the “reported t1/2 of TAC” value [2] was 32 h, the “estimated F value of TAC” value ([3]; after ensitrelvir administration, simulated levels matched measured level at 7:00 on day 8) was 0.125 and the half-life ([3]; 1 mg, day 8 to 12, assuming bioavailability 0.125) was 39.9 h. It also gave a half-life ([3]; 1 mg, day 12 to 14, assuming bioavailability 0.125) of 23.4 h, a half-life ([3]; Day5, 7:00 to Day8, 7:00, hypothesized to continue from days 2-5 until day 8) of 115 h and a Vd [4] of 42 L. For the same compound, the concentration at 11 h ([5]; oral) was 5.1 ng/mL, the concentration at 12 h ([5]; oral, 1 mg) was 6.5 ng/mL and the concentration at 20 h ([5]; oral, 1 mg) was 3.7 ng/mL. For the same compound, the concentration at 21.5 h ([5]; oral, 1.5 mg) was 3.6 ng/mL, the concentration at 35.5 h ([5]; oral, 1.5 mg) was 2.7 ng/mL and the concentration at 83.5 h ([5]; oral, 1.5 mg) was 1.7 ng/mL. For the same compound, the concentration at 155.5 h ([5]; oral, 1.5 mg) was 1.1 ng/mL, the concentration at 5 days ([5]; oral, 2 mg) was 6.6 ng/mL and the concentration at 36 h ([5]; po, 0.2 mg) was 1 ng/mL. For the same compound, the concentration at 12 h ([5]; po, 1 mg) was 3.9 ng/mL, the half-life ([6]; day 0 to 2, under ensitrelvir) was 71.9 h and the half-life ([6]; day 2 to 5, under ensitrelvir) was 115 h. For the same compound, the half-life ([6]; day -1 to 0, before ensitrelvir) was 33.7 h.
For `CCC(CC)COC(=O)[C@H](C)N[P@](=O)(OC[C@H]1O[C@@](C#N)(c2ccc3c(N)ncnn23)[C@H](O)[C@@H]1O)Oc1ccccc1` [remdesivir], the “SARS-CoV2 PCR Ct value” (SARS-CoV-2; after first five-day course of remdesivir, day 15 (so in the source)) was 25.73 and the “SARS-CoV2 PCR Ct value” (SARS-CoV-2; day -7, after second five-day course of remdesivir) was 26.18.
For `Cn1cnc(Cn2c(=O)[nH]/c(=N\c3cc4cn(C)nc4cc3Cl)n(Cc3cc(F)c(F)cc3F)c2=O)n1` [ensitrelvir, Ensitrelvir], the Scr level ([1]; during ensitrelvir treatment) was “remained within normal ranges”, the “alanine aminotransferase (ALT) level” value ([1]; during ensitrelvir treatment) was “remained within normal ranges” and the “time required to clear ensitrelvir from the body” value [7] was 7 to 8 days. The “CT imaging of lung fields” value [8] was “improved inflammation in both lung fields”, the “increase in TAC trough/blood levels with concurrent ensitrelvir” value (CYP3A and P-gp) was “approximately threefold; also recorded: approximate three-fold increase” and the half-life of ensitrelvir [9] was “approximately 50 h”. For the same compound, the “increase of AUC of midazolam” value (CYP3A [10]) was 6.7 fold, the “increase of t1/2 of midazolam” value (CYP3A [10]) was 2.3 fold and the “time over which the DDI effect diminished/resolved” value (CYP3A [11]; after discontinuation of ensitrelvir) was 7 to 10 days. The “increase in the AUC of TAC by inhibition of CYP3A in the liver” value (CYP3A [11]; inferred from t1/2 prolongation) was “threefold increase”, the “inhibition of P-gp” value (P-glycoprotein (P-gp)) was “strongly inhibits” and the “inhibition of CYP3A” value [12] was “strongly inhibits”. The “manner of CYP3A inhibition” value [12] was “time-dependent and irreversible manner”, the “SARS-CoV-2 PCR Ct value” (SARS-CoV-2; day 0, start of ensitrelvir in combination with remdesivir) was 25.88 and the “SARS-CoV-2 PCR Ct value” (SARS-CoV-2; day 5, ensitrelvir in combination with remdesivir) was 30.03. For the same compound, the “SARS-CoV-2 PCR Ct value” (SARS-CoV-2; day 12, after ensitrelvir in combination with remdesivir) was 34.36, the “SARS-CoV-2 PCR Ct value” (SARS-CoV-2; day 19, after ensitrelvir in combination with remdesivir) was 34.89 and the “effect on AUC of digoxin (P-gp substrate)” value (P-gp) was “increased the AUC of digoxin”. For the same compound, the “inhibition of BCRP” value [13] was “strongly inhibits”.
